Test results: US9562043B2 (EA Pharma Co., Ltd., priority 2012, dated 2017)

Biological target: T1, human TRPA1 (Homo sapiens, UniProt O75762)
T1 construct: host or cells: human embryonic kidney-derived 293T cells, transient transfection with pcDNA3.1/zeo(+) plasmid
Test: Measurement of TRPA1 antagonist activity (intracellular calcium increase, FLIPR)
Format: cell-based
Conditions: 293T cells transfected with human TRPA1 expression plasmid, allylisothiocyanate 20 μM stimulation, calcium fluorescence, read-out: antagonism hTRPA1
From the text: Measurement of TRPA1 Antagonist Activity
Human TRPA1 Expression Plasmid
As cDNA encoding human TRPA1 (GenBank accession No. […]), a commercially available product was purchased (manufactured by Kazusa DNA Research Institute, clone No.: pFN21AB7348, item No.: FHC07217). Using this as a template, full-length human TRPA1 gene was amplified using the primer sequences shown below, by reaction using DNA polymerase (manufactured by Stratagene, trade name: PfuUltra High-Fidelity DNA Polymerase).
A recognition site (underlined) of restriction enzyme HindIII was added to the 5′ side, and XbaI site (underlined) was added to the 3′ side, and GTT of the template sequence was changed to termination codon TAG (bold). The obtained double stranded DNA was enzyme-digested with HindIII and XbaI, and introduced into a multicloning site of expression plasmid pcDNA3.1/zeo(+) (manufactured by Invitrogen) to give a human TRPA1 expression plasmid.
Human embryonic kidney-derived 293T cells were cultured in Dulbecco's Modified Eagle Medium containing 10% fetal bovine serum, 10 unit penicillin, and 10 μg streptomycin, plated on a petri dish having a diameter of 10 cm at 3×10^6 cells, and cultured for 24 hr. A medium containing a reduced amount of serum (manufactured by Invitrogen, trade name: OPTI-MEM, 600 μL), a gene insertion reagent (manufactured by Mirus Bio, trade name: Mirus TransIT-293, 18 μL), and human TRPA1 expression plasmid (6 μg) were mixed, the total amount of the mixture was added to the cells on the petri dish to allow for gene transfer. The cells were recovered about 8 hr later, plated on a poly-D-lysine coated 384 well black/clear bottom plate at 7,500-12,000 cells/well, and cultured overnight.
Measurement of Intracellular Calcium Increase
The 384 well plate was recovered, and the medium was removed. A calcium-bonded fluorescent indicator (manufactured by Molecular Device, trade name: Calcium4 Assay Kit, 40 μL) dissolved in assay buffer (1×HBSS, 20 mM HEPES, pH 7.2) was added, and the cells were stained in a 37° C. incubator for 1 hr. The cells were taken out at room temperature and left standing for 15 min or more. A test substance (10 μL) was added by a 384 well type dispenser, and the mixture was incubated at room temperature for 10 min. Then, allylisothiocyanate (12.5 μL) at a final concentration of 20 μM was added by a fluorescence imaging plate reader (manufactured by Molecular Device, FLIPR), and changes in the relative fluorescence intensity were measured for 5 min.
Test Substance Preparation
The test substance was dissolved in dimethyl sulfoxide and serially diluted with an assay buffer containing 0.1% bovine serum albumin (1×HBSS, 20 mM HEPES, pH 7.2) to a 5-fold concentration of the evaluation concentration. Allylisothiocyanate, which is a known TRPA1 activator, was dissolved in dimethyl sulfoxide to 100 mM, and further diluted 5-fold (100 μM) of the final concentration, like the test substance.
Calculation of Antagonist Activity
Under the test substance-free conditions, the maximum variation range of the fluorescence intensity before and after allylisothiocyanate stimulation was defined to be 100% activity rate, and the variation range before and after buffer stimulation was defined as 0% activity rate. The activity rate on addition of the test substance was determined, and the numerical value obtained by subtracting the activity rate from 100 was defined to be an inhibitory rate. IC50, which is the concentration of the test substance necessary for reaching the 50% inhibitory rate, was calculated from the sigmoid approximate curve by a spreadsheet software Excel-Fit.

T1 sequence (O75762 whole entry): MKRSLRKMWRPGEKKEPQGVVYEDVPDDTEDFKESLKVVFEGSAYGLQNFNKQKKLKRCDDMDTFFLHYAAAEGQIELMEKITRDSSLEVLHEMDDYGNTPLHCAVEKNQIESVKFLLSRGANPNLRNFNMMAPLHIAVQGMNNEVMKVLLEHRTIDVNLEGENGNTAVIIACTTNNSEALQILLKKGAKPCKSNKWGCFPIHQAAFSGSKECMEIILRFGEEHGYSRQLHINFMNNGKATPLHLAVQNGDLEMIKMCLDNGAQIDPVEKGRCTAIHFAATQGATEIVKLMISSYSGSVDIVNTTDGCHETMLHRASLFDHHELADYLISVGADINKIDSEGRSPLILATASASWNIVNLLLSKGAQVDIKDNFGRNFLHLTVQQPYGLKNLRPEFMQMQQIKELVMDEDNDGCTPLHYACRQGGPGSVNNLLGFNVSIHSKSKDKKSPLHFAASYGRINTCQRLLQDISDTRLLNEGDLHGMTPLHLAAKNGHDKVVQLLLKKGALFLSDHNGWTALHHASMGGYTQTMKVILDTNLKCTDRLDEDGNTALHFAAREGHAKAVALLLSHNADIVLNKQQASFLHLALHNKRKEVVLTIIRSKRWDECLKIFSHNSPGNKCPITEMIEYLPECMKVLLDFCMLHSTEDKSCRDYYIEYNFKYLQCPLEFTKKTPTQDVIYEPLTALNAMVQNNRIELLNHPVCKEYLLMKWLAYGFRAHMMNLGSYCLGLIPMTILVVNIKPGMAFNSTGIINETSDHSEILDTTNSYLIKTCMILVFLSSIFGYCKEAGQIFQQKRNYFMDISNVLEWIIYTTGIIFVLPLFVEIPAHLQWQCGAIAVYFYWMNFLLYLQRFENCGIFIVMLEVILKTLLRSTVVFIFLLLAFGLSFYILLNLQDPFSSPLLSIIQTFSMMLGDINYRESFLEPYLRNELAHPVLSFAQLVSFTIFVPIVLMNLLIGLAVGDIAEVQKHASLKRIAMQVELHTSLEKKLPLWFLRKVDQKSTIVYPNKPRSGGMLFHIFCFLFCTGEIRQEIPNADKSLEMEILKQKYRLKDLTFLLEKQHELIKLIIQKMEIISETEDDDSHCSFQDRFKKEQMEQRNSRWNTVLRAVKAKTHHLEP

Compound	IC50 [nM]
O=C(NCc1csc(-c2ccc(C(F)(F)F)cc2)n1)[C@@H]1C=CCN1S(=O)(=O)c1ccc(Cl)s1 [compound 26, (2S)-1-(5-chlorothiophene-2-sulfonyl)-N-({2-[4-(trifluoromethyl)phenyl]-thiazol-4-yl}methyl)-3,4-didehydropyrrolidine-2-carboxamide]	180
O=C(NCc1nc(-c2ccc(C(F)(F)F)cc2)cs1)[C@@H]1CC(F)(F)CN1S(=O)(=O)c1ccc(Cl)s1 [compound 27, (2S)-1-(5-chlorothiophene-2-sulfonyl)-N-({4-[4-(trifluoromethyl)phenyl]-thiazol-2-yl}methyl)-4,4-difluoropyrrolidine-2-carboxamide]	960
O=C(NCc1nc(-c2ccc(C(F)(F)F)cc2)cs1)[C@@H]1C[C@@H](O)CN1S(=O)(=O)c1ccc(Cl)s1 [compound 28, (2S,4R)-1-(5-chlorothiophene-2-sulfonyl)-N-({4-[4-(trifluoromethyl)phenyl]-thiazol-2-yl}methyl)-hydroxypyrrolidine-2-carboxamide]	2690
O=C(NCc1nc(-c2ccc(C(F)(F)F)cc2)cs1)[C@@H]1CSCN1S(=O)(=O)c1ccc(Cl)s1 [compound 29, (4R)-3-(5-chlorothiophene-2-sulfonyl)-N-({4-[4-(trifluoromethyl)phenyl]-thiazol-2-yl}methyl)-1,3-thiazolidine-4-carboxamide]	580
CC1(C)SCN(S(=O)(=O)c2ccc(Cl)s2)[C@@H]1C(=O)NCc1nc(-c2ccc(C(F)(F)F)cc2)cs1 [compound 30, (4R)-3-(5-chlorothiophene-2 sulfonyl)-N-({4-[4-(trifluoromethyl)phenyl]-thiazol-2-yl}methyl)-5,5-dimethyl-1,3-thiazolidine-4 carboxamide]	520
O=C(NCc1nc(-c2ccc(C(F)(F)F)cc2)cs1)[C@@H]1CCN1S(=O)(=O)c1ccc(Cl)s1 [compound 31, (2S)-1-(5-chlorothiophene-2-sulfonyl)-N-({4-[4-(trifluoromethyl)phenyl]-thiazol-2-yl}methyl)azetidine-2-carboxamide]	750
O=C(NCc1nc(-c2ccc(OC(F)(F)F)cc2)cs1)[C@@H]1CCN1S(=O)(=O)c1ccc(Cl)s1 [compound 32, (2S)-1-[5-chlorothiophene-2-sulfonyl)-N-({4-[4-(trifluoromethoxy)phenyl]-thiazol-2-yl}methyl)azetidine-2-carboxamide]	2790
C[C@@]1(C(=O)NCc2nc(-c3ccc(C(F)(F)F)cc3)cs2)CCCN1S(=O)(=O)c1ccc(Cl)s1 [compound 33, (2S)-1-(5-chlorothiophene-2-sulfonyl)-N-({4-[4-(trifluoromethyl)phenyl]-thiazol-2-yl}methyl)-2-methylpyrrolidine-2-carboxamide]	740
C[C@@]1(C(=O)NCc2nc(-c3ccc(OC(F)(F)F)cc3)cs2)CCCN1S(=O)(=O)c1ccc(Cl)s1 [compound 34, (2S)-1-(5-chlorothiophene-2-sulfonyl)-N-({4-[4-(trifluoromethoxy)phenyl]-thiazol-2-yl}methyl)-2-methylpyrrolidine-2-carboxamide]	890
C[C@H](NC(=O)[C@]1(C)CCCN1S(=O)(=O)c1ccc(Cl)s1)c1nc(-c2ccc(OC(F)(F)F)cc2)cs1 [compound 35, (2S)-1-(5-chlorothiophene-2-sulfonyl)-N-[(1S)-1-{4-[4-(trifluoromethoxy)phenyl]-thiazol-2-yl}ethyl]-2-methylpyrrolidine-2-carboxamide]	2500
O=C(NCc1nc(-c2ccc(C(F)(F)F)cc2)cs1)[C@@H]1CCCN1S(=O)(=O)c1cccs1 [compound 36, (2S)-1-(thiophene-2-sulfonyl)-N-({4-[4-(trifluoromethyl)-phenyl]thiazol-2-yl}methyl)pyrrolidine-2-carboxamide]	1790
O=C(NCc1nc(-c2ccc(C(F)(F)F)cc2)cs1)[C@@H]1CCCN1S(=O)(=O)c1ccc(F)cc1 [compound 37]	1000
O=C(NCc1nc(-c2ccc(C(F)(F)F)cc2)cs1)[C@@H]1CCCN1S(=O)(=O)c1ccc(Cl)cc1 [compound 38]	980
